Experimental data reported in patent US20130108653A1, “BIVALENT MOLECULES FOR HIV ENTRY INHIBITION” (priority 2009, published 2013).

System: JRCSF (CCR5-tropic)
Experiment: Luciferase assay / single round infection in TZM-bl cells, JRCSF
Type: cell-based, HIV
Conditions: TZM-bl luciferase indicator cells; FIG. 20
Source text: FIGS. 10-14. Inhibitory effect of the bivalent molecules of the present invention on HIV spreading. The experiment is based on the activation of the luciferase gene upon infection of TZM-bl cells. X-axis depict 3 different dilutions of a virus stock (HXB2 (CRCX4-trop, virus 89.6 (Dual-trop) or JRCSF (CCR5-trop)) with unknown titer (1×, 5× and 25×). Y-axis depicts the amount of luminescence. Lower luminescence corresponds to greater inhibitory effect of the bivalent molecules of the present invention. (See also Example 4 elsewhere herein).
JRCSF is incubated in the presence of mol 500 in a concentration of 0.2 micrograms/ml and 0.1 micrograms/ml. JRCSF incubated without mol 500 is shown as a control. […]
The experiment is based on the activation of the luciferase gene upon infection of TZM-bl cells with 3 different virus strains (HXB2 (CRCX4-tropic), virus 89.6 (Dual-tropic) or JRCSF (CCR5-tropic)). The more luminescence measured, the greater activation of the luciferase gene has occurred, and the more inefficient the inhibition of infection has been by the molecule of the present invention […]
90 μl of Luciferin (britelite plus Perkin Elmer cat no: 6016761) is added to each well in order to start the chemo-luminescence reaction.
150 μl of the liquid is removed from each well and the luminescence is measured in a FLUO star Omega (BMG LABYECH Gmbh). […]

Q: For enfuvirtide, which “neutralization of JR-CSF, single round infection, in words” value is on record?
A: The value was “very minor effects”.
